Measurements taken from patent publication US20060264330A1, “Agricultural agents containing copolymers” (priority 2003, published 2006).
Counter-ions that a name gives are not always drawn.

Assays:
Assay type in all cases: in vivo
Solanum nigrum L. = experiment: 14C-glyphosate foliar uptake by scintillation measurement; settings: 14C-glyphosate-IPA 20 mM (aq), adjuvant 0.25%
Method: Determination of the foliar uptake of glyphosate with addition of the copolymers described
^14C-Glyphosate Experiment
^14C-glyphosate-IPA at a concentration of 20 mM (aq) (corresponds to 665 g of ae/ha at a spray volume of 200 l/ha) was treated with 0.25% of the copolymers described. Using this mixture, the foliar uptake into the genus Solanum nigrum L. was determined by means of scintillation measurement. The effect of the copolymer on the uptake of the active ingredient via the leaf surface (foliar uptake) is described in the table which follows: […]

common chickweed (STEME) = experiment: Nicosulforon experiment, plant fresh weight; settings: nicosulforon 200 g of ai/ha, adjuvant 0.25%, 14 DAT; untreated = 100
Method: (§1) Nicosulforon was applied as an aqueous solution with a concentration of 200 g of ai/ha. The adjuvants were added to the application solution at a concentration of 0.25%. The mixture was applied to plants of the genus velvetleaf (ABUTH), common lambsquarter (CHEAL) and common chickweed (STEME). The efficacy was determined by weighing the plant weight (fresh weight in g) 14 days post-application (14 DAT).

[1] = test system: common lambsquarter (CHEAL); experiment: Nicosulforon experiment, plant fresh weight; settings: nicosulforon 200 g of ai/ha, adjuvant 0.25%, 14 DAT; untreated = 100
Method: as §1

velvetleaf (ABUTH) = experiment: Nicosulforon experiment, plant fresh weight; settings: nicosulforon 200 g of ai/ha, adjuvant 0.25%, 14 DAT; untreated = 100
Method: as §1

[2] = test system: common lambsquarters (CHEAL); experiment: Bentazone experiment, photosynthetic activity by fluorescence measurement (Fpc); settings: sodium salt of bentazone 60 g ai/ha, adjuvant 0.25%, 1 DAT; Fpc drops from 100 to 0 with destruction of the plant
Method: (§2) The sodium salt of bentazone was applied as an aqueous solution with a concentration of 480 g/l. The application rate was 60 g of ai/ha. The mixture was applied to plants of the genus common lambsquarters (CHEAL) and wild buckwheat (POLCO). The adjuvants were added to the application solution at a concentration of 0.25%. The activity was determined by means of fluorescence measurement, where the factor Fpc is a measure of the photosynthetic activity. The destruction of the plant is associated with a drop in the Fpc value, starting from 100, down to 0.

wild buckwheat (POLCO) = experiment: as above; settings: sodium salt of bentazone 60 g ai/ha, adjuvant 0.25%, 1 DAT; Fpc drops from 100 to 0 with destruction of the plant
Method: as §2

**Q.** With `O=C(O)CNCP(=O)(O)O` [glyphosate, N-phosphonomethylglycine] as the molecule, how does the “Uptake (% of the amount of glyphosate applied)” value (Solanum nigrum L.) read?
**A.** The value was 48 % of the amount of glyphosate applied.

**Q.** `COc1cc(OC)nc(NC(=O)NS(=O)(=O)c2ncccc2C(=O)N(C)C)n1` [nicosulforon] was tested. Which “FW (fresh weight) STEME” value (common chickweed (STEME)) did it give?
**A.** Its value is 63 g.

**Q.** And the “FW (fresh weight) CHEAL” value [1]?
**A.** The value was 88 g.

**Q.** And the “FW (fresh weight) ABUTH” value (velvetleaf (ABUTH))?
**A.** The value was 90 g.

**Q.** How did the “Fluorescence Fpc CHEAL” value [2] turn out when `CC(C)N1C(=O)c2ccccc2NS1(=O)=O` [sodium salt of bentazone] was run?
**A.** The value was 56.

**Q.** What about the “Florescence Fpc POLCO” value (wild buckwheat (POLCO)) of the same molecule?
**A.** Its value is 46.
